Data on one compound can be found in patent US11292803B2, “Bioreducible N-oxide-based probes for imaging of hypoxia” (THE BOARD OF TRUSTEES OF THE UNIVERSITY OF ILLINOIS, priority 2018, dated 2022).

Each structure is given as a SMILES string.

Data set [1] deals with purified bacterial nitroreductase. Briefly: Incubation with purified nitroreductase. In kind it is biochemical. Particulars: NADH, 37° C., 2 h. The method, then:
(§1) FIG. 15. […] For the nitroreductase experiment, HyP-1 (2 μM) was incubated in the presence of nitroreductase (0.5 μg/mL) and NADH (100 μM) in 0.1 M potassium phosphate buffer (pH 7.4) at 37° C. for 2 h. For the bacterial experiment, bacteria were grown overnight, and cells were lysed via sonication. The suspension was centrifuged at 4000 rpm for 10 min, and the supernatant was removed. HyP-1 (2 μM) was incubated with cell lysate solution (1 mL) at 37° C. for 2 h.
(§2) In addition to Fe(II), the response of HyP-1 to a variety of alkali, alkaline earth and transition metals was also determined. […] To further evaluate the stability of HyP-1, a 10 μM solution of the probe was exposed to ambient light and temperature for up to 5 days. Additionally, a 10 μM solution of HyP-1 supplemented with human plasma was incubated at 37° C. for 3 hours. […] As mentioned previously, a major limitation of 2-nitroimidazole-based hypoxia probes is their susceptibility to oxygen-independent reduction via two-electron processes, such as by bacterial nitroreductases. […] Finally, the photostability of both HyP-1 and red-HyP-1 was evaluated via continuous PA image acquisition at 770 nm over the course of 1 hour.

In data set [2] the test system is E. coli cell lysates. Briefly: Incubation with bacterial cell lysates. In kind it is biochemical. Particulars: 37° C., 2 h. The method, then: as §1, §2
Data set [3] deals with rat liver microsomes. Description: PA response after rat liver microsome incubation, tissue-mimicking phantom. Particulars: 2 h incubation with RLM, quenched with acetonitrile. In kind it is biochemical. The method, then:
FIG. 4. Hypoxia-selective response of HyP-1 in vitro. […] Dashed lines indicate positioning of FEP tubes.
Tissue phantoms were prepared by suspending agarose (4 g) in a solution of 2% milk (2 mL) and deionized H2O (78 mL). The suspension was then heated in a microwave oven until a viscous gel was produced (30-50 seconds). The gel was transferred to a mold made by drilling holes through a 50 mL centrifuge tube and placing FEP tubes (0.08″ diameter) through the holes to create spaces for samples. After cooling the gel for a minimum of 3 hours, the solidified phantom was removed from the mold and cut with a razor blade such that the distance from the sample holes to the phantom's edges was 1.0 cm. To image samples, sample solutions were pipetted into FEP tubing (0.08″ diameter, cut to 10 cm long) which was inserted into the phantom and sealed by folding over the ends and securing with additional tubing (0.12″ diameter, cut to 5 mm long). Images were acquired using the Step and Shoot mode with 120 angles and 10 pulses per angle. Data was analysed using OsiriX Lite software (Version 8.0). Thick slab processing was used to visualize accumulated signal over 5 mm. ROIs of equal area were drawn around areas containing signal, and mean PA signal in each ROI was recorded.

The test system of data set [4] is 4T1 tumour allografts. Description: In vivo fluorescence imaging of hypoxic tumour model. The arrangement: species or system BALB/c mice. Particulars: intratumoural injection 50 μL, 100 μM; after 1 hour. The method, then: Tumour allografts were generated via subcutaneous implantation of 4T1 cells into the right flanks of BALB/c mice. The tumours were allowed to grow to volumes of 300-400 mm^3 prior to imaging. As an initial study to visualize the intratumoural conversion of HyP-1 to red-HyP-1 in real time, ratiometric fluorescence imaging was performed immediately following administration of HyP-1 (50 μL, 100 μM) via intratumoural or subcutaneous (control) injection.
All in vivo imaging experiments were performed with the approval of the Institutional Animal Care and Use Committee of the University of Illinois at Urbana-Champaign, following the principles outlined by the American Physiological Society on research animal use. Female mice (5-6 weeks old) were acquired from The Jackson Laboratory. A suspension of 0.5×10^6 cells in serum-free medium containing 50% v/v matrigel (100 μL) was subcutaneously injected into the right flank of each mouse. Tumours with volumes of 300-400 mm^3 formed after 12-15 days. […]
Images were obtained using epi-fluorescence with excitation filters of 675 and 745 and corresponding emission filters of 720 and 800, respectively. […] ROIs of equal area were drawn around signals, and the total radiant efficiency in each ROI was determined. Ratiometric signal was calculated by determining the ratio of radiant efficiency corresponding to 800 nm and 720 nm emissions.

The subject of data set [5] is ischemic hindlimb tissue. Description: In vivo PA imaging of hindlimb ischemia model. Particulars: intramuscular 50 μL, 50 μM; 1 hour after injection. Set-up: species or system BALB/c mice. The protocol:
After observing the hypoxia-mediated response of HyP-1 in the hindlimb ischemia model, attention was turned to detecting this response using PA imaging. As described above, surgical ligation was employed to induce ischemia, and HyP-1 (50 μL, 50 μM) was administered via intramuscular injection.
All in vivo imaging experiments were performed with the approval of the Institutional Animal Care and Use Committee of the University of Illinois at Urbana-Champaign, following the principles outlined by the American Physiological Society on research animal use. Female mice (5-6 weeks old) were acquired from The Jackson Laboratory. […] Animals that underwent unsuccessful surgery as determined by laser Doppler perfusion imaging were excluded from analysis.
Prior to imaging, hair was removed from the lower body half by shaving and treating with a topical hair removal cream. Mice were positioned on their sides such that the area to be imaged was directly above the light source. Images were acquired using the Step and Shoot mode with 120 angles and 30 pulses per angle. Data was analysed using OsiriX software. […] ROIs of equal area were drawn to include all visible signal in the image, and mean PA signal in each ROI was recorded. Change in PA signal was calculated by subtracting signal from images taken prior to injection from those at given time points.

Data set [6] is described as follows: Chemostability under ambient light and temperature. In kind it is physicochemical. Particulars: 10 μM solution, up to 5 days. The protocol: FIG. 11. Fluorescence intensity (Ex.=670 nm) of HyP-1 (2 μM) at the indicated time points during extended incubation in 0.1 M potassium phosphate buffer (pH 7.4, 0.1% v/v CrEL) under ambient light and temperature. Represented as mean±SD (n=3).
as §2

Regarding `CC[N+]([O-])(CC)c1ccc(-c2cc(-c3ccccc3)c3n2[B-](F)(F)[N+]2=C(c4ccc(OC)cc4)C=C(c4ccccc4)C2=N3)cc1` [HyP-1, 4-(5,5-difluoro-7-(4-methoxyphenyl)-1,9-diphenyl-5H-5λ^4,6λ^4-dipyrrolo[1,2-c:2′,1′-f][1,3,5,2]triazaborinin-3-yl)-N,N-diethylaniline oxide], the “conversion to red-HyP-1” value in data set [1] and in data set [2] was “minimal conversion” throughout. In addition, the “PA signal (770 nm), hypoxic reaction versus normoxic” value in data set [3] is 4 fold. Also, in data set [4], the “ratiometric fluorescent turn-on, tumour tissue versus subcutaneous control” value was found to be 5.6 fold. In data set [5], the “PA signal enhancement, ischemic tissue versus control leg” value turned out to be 3.1 fold. Also, in data set [6], the “decomposition under ambient light and temperature” value is listed as “no substantial decomposition”.
